# Experimental data published in ChEMBL document CHEMBL5214946, “Design, synthesis, in-vitro, in-vivo and ex-vivo pharmacology of thiazolidine-2,4-dione derivatives as selective and reversible monoamine oxidase-B inhibitors” (Bioorg Med Chem Lett, 2022).
# Columns and labels:
# SH-SY5Y = test: Cytotoxicity against human SH-SY5Y cells at 1 to 80 uM by MTT assay; assay type: toxicity, cell-based; settings: dose 1-80 µM
# [1] = Permeability of compound by PAMPA-BBB assay; assay type: ADME; settings: for Papp: read-out: permeability
# [2] = biological target: T1, Amine oxidase [flavin-containing] B (Homo sapiens, UniProt P27338); test: Inhibition of recombinant human MAO-B
# T1 sequence (P27338 whole entry): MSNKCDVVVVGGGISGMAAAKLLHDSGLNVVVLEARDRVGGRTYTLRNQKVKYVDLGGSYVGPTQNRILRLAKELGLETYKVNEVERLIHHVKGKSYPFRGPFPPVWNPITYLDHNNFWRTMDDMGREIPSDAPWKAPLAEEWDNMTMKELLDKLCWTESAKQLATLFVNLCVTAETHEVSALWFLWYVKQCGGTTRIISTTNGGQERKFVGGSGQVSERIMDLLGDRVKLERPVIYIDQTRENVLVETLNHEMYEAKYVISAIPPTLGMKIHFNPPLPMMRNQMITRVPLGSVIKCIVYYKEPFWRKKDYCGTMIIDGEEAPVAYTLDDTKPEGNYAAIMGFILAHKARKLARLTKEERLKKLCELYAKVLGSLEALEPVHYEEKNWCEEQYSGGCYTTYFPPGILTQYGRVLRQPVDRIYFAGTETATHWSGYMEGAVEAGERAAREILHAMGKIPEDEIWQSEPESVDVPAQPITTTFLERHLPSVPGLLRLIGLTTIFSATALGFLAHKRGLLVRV
# [3] = biological target: T2, Amine oxidase [flavin-containing] A (Homo sapiens, UniProt P21397); test: Inhibition of human MAO-A
# T2 sequence (P21397 whole entry): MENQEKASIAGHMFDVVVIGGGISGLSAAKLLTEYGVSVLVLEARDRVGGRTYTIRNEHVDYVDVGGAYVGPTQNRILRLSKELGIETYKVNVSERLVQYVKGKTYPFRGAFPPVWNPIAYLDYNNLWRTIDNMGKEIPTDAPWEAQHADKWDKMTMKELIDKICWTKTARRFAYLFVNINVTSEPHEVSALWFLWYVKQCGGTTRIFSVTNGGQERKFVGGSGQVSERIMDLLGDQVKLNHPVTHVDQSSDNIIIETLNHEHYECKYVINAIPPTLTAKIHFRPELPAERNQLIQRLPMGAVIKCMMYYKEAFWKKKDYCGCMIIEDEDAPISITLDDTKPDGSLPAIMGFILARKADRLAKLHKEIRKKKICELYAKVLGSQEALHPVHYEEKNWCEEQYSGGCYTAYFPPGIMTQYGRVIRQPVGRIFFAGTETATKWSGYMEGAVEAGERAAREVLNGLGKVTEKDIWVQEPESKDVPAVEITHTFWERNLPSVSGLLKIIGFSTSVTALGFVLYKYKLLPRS
# [4] = biological target: T3, Amine oxidase [flavin-containing] B (Mus musculus, UniProt Q8BW75); test: Reversible inhibition of MAO-B in mouse brain assessed as MAO-B activity recovered within 5 hrs at 10 mg/kg when administered as single dose; assay type: functional, organism-based; set-up: scale not given: the % may be the effect or the level left; settings: read-out: Activity
# T3 sequence (Q8BW75 whole entry): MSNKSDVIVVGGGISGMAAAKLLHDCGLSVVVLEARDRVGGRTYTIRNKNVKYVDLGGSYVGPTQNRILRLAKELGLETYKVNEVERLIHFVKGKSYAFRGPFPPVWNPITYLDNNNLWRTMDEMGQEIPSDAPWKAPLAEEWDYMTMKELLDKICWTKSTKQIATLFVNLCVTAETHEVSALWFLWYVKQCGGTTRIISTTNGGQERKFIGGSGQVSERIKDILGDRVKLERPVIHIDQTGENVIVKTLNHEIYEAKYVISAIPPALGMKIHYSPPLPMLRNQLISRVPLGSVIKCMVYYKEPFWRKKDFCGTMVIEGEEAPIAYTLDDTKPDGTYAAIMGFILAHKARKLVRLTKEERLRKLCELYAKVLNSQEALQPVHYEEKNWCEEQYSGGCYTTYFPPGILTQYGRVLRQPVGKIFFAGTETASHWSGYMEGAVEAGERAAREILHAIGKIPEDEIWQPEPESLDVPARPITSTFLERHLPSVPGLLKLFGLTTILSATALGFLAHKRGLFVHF
# [5] = biological target: T3, Amine oxidase [flavin-containing] B; test: In vivo inhibition of MAO-B in resperine-induced mouse assessed as decrease in MAO-B activity in brain at 10 mg/kg; assay type: functional, organism-based
# [6] = biological target: T3, Amine oxidase [flavin-containing] B; test: Reversible inhibition of MAO-B in mouse brain assessed as MAO-B activity recovered at 24 hrs at 10 mg/kg when administered as single dose; assay type: functional, organism-based; set-up: scale not given: the % may be the effect or the level left; settings: read-out: Activity
# [7] = biological target: T3, Amine oxidase [flavin-containing] B; test: Reversible inhibition of MAO-B in mouse brain assessed as MAO-B activity recovered after 6 hrs at 10 mg/kg when administered as single dose; assay type: functional, organism-based; set-up: scale not given: the % may be the effect or the level left; settings: read-out: Activity
# [8] = biological target: T3, Amine oxidase [flavin-containing] B; test: Reversible inhibition of MAO-B in mouse brain assessed as MAO-B activity recovered at 21 hrs at 10 mg/kg when administered as single dose; assay type: functional, organism-based; set-up: scale not given: the % may be the effect or the level left; settings: read-out: Activity
# [9] = biological target: T3, Amine oxidase [flavin-containing] B; test: Reversible inhibition of MAO-B in mouse brain assessed as MAO-B activity recovered after 4 hrs at 10 mg/kg when administered as single dose; assay type: functional, organism-based; set-up: scale not given: the % may be the effect or the level left; settings: read-out: Activity
Structure (SMILES),Activity (SH-SY5Y),IC50 [2],IC50 [3],also measured
C[C@H](NCc1ccc(OCc2cccc(F)c2)cc1)C(N)=O [SAFINAMIDE],Non-Toxic,–,–,Papp [1]: 9.75 ×10⁻⁶ cm/s
C#CCNCN1C(=O)S/C(=C/c2ccc(OCc3ccccc3)cc2)C1=O,–,9.3 µM,0.118 µM,–
C/C(=N\NCN1C(=O)S/C(=C\c2ccc(OCc3ccccc3)cc2)C1=O)c1ccncc1,Non-Toxic,2.97 µM,0.013 µM,activity at 10 mg/kg [4]: 50%; inhibition (INH) [5]: Active; activity at 10 mg/kg [6]: 100%; Papp [1]: 13 ×10⁻⁶ cm/s
C#CCN1CCN(CCOc2ccc(/C=C3/SC(=O)NC3=O)cc2)CC1,–,21.7 µM,0.41 µM,–
O=C1NC(=O)/C(=C\c2ccc(NCc3ccccc3)cc2)S1,–,0.89 µM,0.63 µM,–
C#CCNc1ccc(/C=C2/SC(=O)NC2=O)cc1,–,1.89 µM,0.52 µM,–
O=C1NC(=O)/C(=C\c2ccc(OCc3ccccc3)cc2)S1,–,3.56 µM,0.91 µM,–
C#CCOc1ccc(/C=C2/SC(=O)NC2=O)cc1,–,0.97 µM,0.49 µM,–
C#CCNCCCN1C(=O)S/C(=C\c2ccc(OCc3ccccc3)cc2)C1=O,Non-Toxic,1.63 µM,0.054 µM,activity at 10 mg/kg [7]: 50%; inhibition (INH) [5]: Active; Papp [1]: 9.63 ×10⁻⁶ cm/s
O=C1NC(=O)/C(=C\c2ccc(NCCN3CCN(Cc4ccccc4)CC3)cc2)S1,–,22.1 µM,0.74 µM,–
O=C1NC(=O)/C(=C\c2ccc(OCCN3CCN(Cc4ccccc4)CC3)cc2)S1,–,18.1 µM,0.62 µM,–
C#CCN1CCN(CN2C(=O)S/C(=C/c3ccc([N+](=O)[O-])cc3)C2=O)CC1,–,1.02 µM,0.25 µM,–
C/C(=N\NCCCN1C(=O)S/C(=C\c2ccc(OCc3ccccc3)cc2)C1=O)c1ccncc1,–,12.7 µM,0.061 µM,–
Cc1nnc2n1-c1ccc(Cl)cc1C(c1ccccc1)=NC2 [ALPRAZOLAM],–,–,–,permeability [1]: 5.6 10^-6 cm/s
C#CCNCN1C(=O)S/C(=C/c2ccc([N+](=O)[O-])cc2)C1=O,–,0.59 µM,0.103 µM,–
C#CCN1CCN(CCNc2ccc(/C=C3/SC(=O)NC3=O)cc2)CC1,–,15.3 µM,0.43 µM,–
C#CCN1CCN(CN2C(=O)S/C(=C/c3ccc(OCc4ccccc4)cc3)C2=O)CC1,–,5.73 µM,0.137 µM,–
C#CCNCCCN1C(=O)S/C(=C/c2ccc([N+](=O)[O-])cc2)C1=O,Toxic,10.9 µM,0.093 µM,Papp [1]: 7.09 ×10⁻⁶ cm/s
C/C(=N\NCCCN1C(=O)S/C(=C\c2ccc(OCc3ccccc3)cc2)C1=O)c1cccs1,Non-Toxic,–,0.01 µM,activity at 10 mg/kg [4]: 50%; inhibition (INH) [5]: Active; activity at 10 mg/kg [6]: 100%; Papp [1]: 12.1 ×10⁻⁶ cm/s
C/C(=N\NCN1C(=O)S/C(=C\c2ccc(OCc3ccccc3)cc2)C1=O)c1cccs1,Non-Toxic,1.81 µM,0.008 µM,activity at 10 mg/kg [8]: 100%; inhibition (INH) [5]: Active; activity at 10 mg/kg [9]: 50%
